In PMC8692993, “PPARα and PPARγ activation is associated with pleural mesothelioma invasion but therapeutic inhibition is ineffective” (iScience, 2021):

Assays:
[1] = tested on: head and neck paraganglioma; design: method as in Florio et al., 2017; conditions: 24 μM, by cell-cycle arrest and caspase-dependent apoptosis; ref Florio et al., 2017; cited from earlier work
[2] = Protein binding by rapid equilibrium dialysis, reporter assay media; type: in vitro ADME; conditions: DMEM/F-12 with 5% dextran-coated charcoal-stripped FCS, mean ± SD, n=3
Protocol: Protein binding was determined via rapid equilibrium dialysis (RED) with incorporation of a pre-saturation step ([Charman et al., 2020]). The pre-incubation process involved RED system being exposed to fresh aqueous solutions of GW6471 (400 nM) for three periods (including one overnight). For the protein binding determination, GW6471 was spiked into the diluted mouse plasma (10% (v/v); in PBS) or DMEM/F-12 media containing 5% dextran-coated charcoal-stripped FCS (at 2000 nM) and dialysed against protein-free PBS (for plasma) or base media (DMEM/F-12) containing GW6471 at 40 nM for 24 h at 37°C under ambient atmosphere on a plate shaker. Concentrations of GW6471 in dialysate and donor samples collected at the end of the dialysis period were determined via LC–MS.
Compound binding was assessed on the basis of the measured concentrations in dialysate and donor samples at the end of the dialysis period.
Based on the post-dialysis measured concentrations in donor (Ctotal_post_dialysis) and dialysate (Cunbound) for each RED unit, the unbound fraction of compound in assay matrix (fu_diluted) was calculated according to Equation 1 below:(Equation 1) fu=Cunbound/Ctotal_post−dialysis
For media, the value for fu calculated according to Equation 1 above was used without further correction. […]

PPARγ = biological target: T1, PPARγ (Homo sapiens, UniProt P37231); assay: LanthaScreen TR-FRET binding assay, PPARγ; conditions: 2 h incubation, mean of 3 replicates ± SEM
T1 sequence (P37231 238-503 limits assumed): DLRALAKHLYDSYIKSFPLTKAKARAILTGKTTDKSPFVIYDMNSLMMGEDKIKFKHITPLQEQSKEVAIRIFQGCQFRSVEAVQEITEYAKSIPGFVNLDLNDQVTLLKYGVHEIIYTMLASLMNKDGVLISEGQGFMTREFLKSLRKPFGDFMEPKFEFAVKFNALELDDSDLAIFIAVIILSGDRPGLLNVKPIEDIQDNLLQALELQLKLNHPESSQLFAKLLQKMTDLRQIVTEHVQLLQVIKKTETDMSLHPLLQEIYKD
Protocol: The LanthaScreen™ TR-FRET binding assay was performed following the manufacturer's guidelines (PV4894, Invitrogen) as follows, 20 mM stock solution of the ligand or control in DMSO were serially diluted using 100% DMSO to produce a range of concentrations from 100 μM to 1 pM. The test compound solutions were mixed with the reaction buffer in a 1 (ligand) in 10 (reaction buffer) dilution for a final 2X ligand concentration. This was mixed with the reaction components (glutathione S-transferase (GST)-PPPARγLBD (0.5 nM)/, terbium (Tb)-labelled anti-GST antibody (5 nM) and Fluormone pan-PPAR green (5 nM for PPARγ; 20 nM for PPARα) at room temperature in a ratio of 8 μLl 2X ligand solution: 4 μLl of 4XFluormone: and 4 μLl 4X GST-PPPARγLBD/terbium (Tb)-labelled anti-GST antibody to produce a final reaction mixture volume of 16 μL. The concentration of DMSO in the final reaction mixture was 5%. The reaction mixture was kept at room temperature for 2 h prior to recording the TR-FRET emission spectra using a CLARIOstar Plus microplate reader (BMG Labtech). […] Results are expressed as the ratio of fluorescence intensity at 520 nm (Fluormone emission) and 490 nm (Tb emission). […] For each compound three serial dilutions were prepared and measured separately. The IC50 and SEM values were determined using a sigmoidal dose-response equation with varying slope using GraphPad Prism.

[3] = tested on: JU77 human mesothelioma cell line; assay: Soft agar colony formation assay; type: cell-based; conditions: JU77, GW6471 0.5-8 μM, p <0.05
Protocol: Cells were incubated with different concentrations of GW6471 (from 0.5 μM to 8 μM) for a soft agar colony formation assay ([Horibata et al., 2015]). Briefly, 3% 2-hydroxyethyl agarose (agarose, A4018; Sigma-Aldrich, Australia) was prepared as stock solution. The bottom layer was prepared by incubating 20% agarose gel in R10 complete medium, RPMI 1640 (Invitrogen) supplemented with 10% foetal calf serum (FCS; Life Technologies), 20 mM HEPES (Sigma-Aldrich), 0.05 mM 2-mercaptoethanol (pH 7.2; Merck, Kilsyth, Australia), 60 μg/mL penicillin (Life Technologies), 50 μg/mL gentamicin (David Bull Labs), for a final concentration of 0.6%, 2mL per well, at 4°C for 1 h to allow the mixture to solidify, then incubating at 37°C for at least 30 min before seeding the cells. The cell-containing layer (10% agarose gel in R10 complete medium for a final concentration of 0.3%, 1 mL per well) was prepared with a concentration of 1,000 cells/mL. 1 mL of cells was then transfer to each well. […]
Colony counting was performed by adding 1 mL of 0.005% crystal violet (C0775; Sigma-Aldrich, Australia) in PBS on top of each well and incubating at room temperature for 24 h. Pictures were taken and colonies counted with ImageJ (v1.52a).

[4] = tested on: VGE62 human mesothelioma cell line; assay: Matrigel invasion scratch assay; type: cell-based; conditions: VGE62, 0.5, 1, 10 μM, concentration-dependent, p <0.0001
Protocol: Cells were harvested and seeded in Incucyte®ImageLock 96-well plates (Essen BioScience) at a density of 10 x 10^4 cells/mL overnight. A scratch wound was performed on the confluent cells with the 96-pin IncuCyte WoundMaker Tool (Essen BioScience). For migration assays, cells were washed with PBS once before adding 100 μL media with GW6471 at indicated concentrations. For matrigel invasion assays, cells were washed with PBS once before adding 50 μL of matrigel basement membrane matrix (FAL356231; Corning, NY, USA) at 8 mg/mL; lastly 100 μL media with GW6471 at indicated concentrations were added on top of the matrigel. Wounded cells were incubated in the IncuCyte ZOOM® at 37°C with 5% CO2. Data were analysed using the Incucyte® Scratch Wound Cell Migration Software Module and calculating the Relative Wound Density (%) (RWD) for both migration and invasion assays.

Structure (SMILES): CCC(=O)NC[C@H](Cc1ccc(OCCc2nc(-c3ccccc3)oc2C)cc1)N/C(C)=C\C(=O)c1ccc(C(F)(F)F)cc1 [GW6471]
- Cell viability and growth [1]: reduced cell viability and growth
- Fraction unbound (fu) [2]: 0.0037 ± 0.0006
- IC50 (PPARγ): 39.4 ± 18.2 nM
- Number of colonies formed [3]: significant reduction in the number of colonies formed
- Invasion into matrigel (relative wound density) [4]: significantly inhibited invasion
